Key:
[1] = test system: winter wheat (TRZAW); experiment: Test 22 growth chamber, postemergence; assay type: in vivo, Triticum aestivum; details: 25 DAA
Procedure: A test was conducted to evaluate the effects on winter barley (HORVW, Hordeum vulgare L.), winter wheat (TRZAW, Triticum aestivum L.), and several weed species of mixtures of Compound 2 with the commercial herbicides (2,4-dichlorophenoxy)acetic acid (2,4-D) and (4-chloro-2-methylphenoxy)acetic acid (MCPA), auxin mimics. […] Plants were treated postemergence at the 2-4 leaf growth stage, except KCHSC, SASKR and STEME which were in the 4-8 leaf growth stage. Each treatment was replicated one time. […] Plants were watered as needed. […] Results are from single replicates.

[2] = test system: wild chamomile (MATCH); experiment: Test 21 growth chamber, postemergence; assay type: in vivo, Matricaria chamomilla; details: 19 DAA
Procedure: (§1) A test was conducted to evaluate the effects on winter barley (HORVW, Hordeum vulgare L.), winter wheat (TRZAW, Triticum aestivum L.), and several weed species, of mixtures of Compound 2 with the commercial herbicide (2,4-dichlorophenoxy)acetic acid (2,4-D), an auxin mimic. […] Plants were treated postemergence at the 2-4 leaf growth stage, and each treatment was replicated one time. […] Plants were watered as needed. […] Results are from single replicates.

[3] = test system: galium (GALAP); experiment: Test 21 growth chamber, postemergence; assay type: in vivo, Galium aparine; details: 19 DAA
Procedure: as §1

[4] = test system: winter barley (HORVW); experiment: Test 20 growth chamber, postemergence; assay type: in vivo, Hordeum vulgare; details: 25 DAA
Procedure: A test was conducted to evaluate the effects on winter barley (HORVW, Hordeum vulgare L.) and winter wheat (TRZAW, Triticum aestivum L.) of mixtures of Compound 2 with the commercial herbicides (2,4-dichlorophenoxy)acetic acid (2,4-D) and (4-chloro-2-methylphenoxy)acetic acid (MCPA), auxin mimics. […] Plants were treated postemergence at the 2-leaf growth stage, and each treatment was replicated a total of four times (three times in the loam/sand blend and one time in RediEarth). […] Plants were watered as needed. […] Results are the means of the four replicates.

[5] = test system: common chickweed (STEME); experiment: Test 21 growth chamber, postemergence; assay type: in vivo, Stellaria media; details: 19 DAA
Procedure: as §1

[6] = test system: wild radish (RAPRA); experiment: Test 7 field trial, preemergence; assay type: in vivo, Raphanus raphanistrum
Procedure: Plots were 7.6 m long by 3.0 m wide with rows spaced 76 cm apart. Seeds were spaced 15 cm apart within the rows. The field was managed using conventional tillage practices. […] Wild radish was evaluated 14 and 28 days after application. […] Results are the means of the three replicates.

[7] = test system: ivyleaf morningglory (IPOHE); experiment: Test 14 field trial, preemergence, growth as percent of control; assay type: in vivo, Ipomoea hederacea; details: 28 DAA
Text: Corn seeds (hybrid ‘Pioneer 31G96 RR’) were planted in mid spring season, 3.8 cm deep in a clay loam soil having 2% organic matter and a pH of 6.6. Plots were 6.1 m long by 3.0 m wide with rows spaced 76 cm apart. Seeds were spaced 15 cm apart within the rows. The field was managed using conventional tillage practices. […] Yellow nutsedge was only evaluated 19 and 28 days after application, and ivyleaf morningglory could only be evaluated 28 days after application. […] Results are the means of the three replicates. This growth inhibition data was converted to results in the form of “plant growth as a percent of control plant growth” using the calculation “100 minus growth inhibition”. […] For “growth as a percent of control” data, Colby's Equation calculates the expected additive effect of herbicidal mixtures having two active ingredients as follows:
Ga+b=GaGb/100 • wherein Ga+b is the growth as a percent of control of plants treated with the mixture expected from additive contribution of the individual components, • Ga is the observed growth as a percent of control of plants treated with the first active ingredient at the same use rate as in the mixture, and • Gb is the observed growth as a percent of control of plants treated with the second active ingredient at the same use rate as in the mixture. For mixtures having three active ingredients, Colby's Equation to calculate the expected additive effect of herbicidal mixtures is as follows:
Ga+b+c=GaGbGc/10,000 • wherein Ga and Gb are as defined above and • Ga+b+c is the growth as a percent of control of plants treated with the mixture expected from additive contribution of the individual components, and • Gc is the observed growth as a percent of control of plants treated with the third active ingredient at the same use rate as in the mixture. When these two forms of Colby's Equation are used, if the observed effects on weeds are less than the expected values, the mixture is synergistic.

[8] = test system: arrowleaf sida (SIDRH); experiment: Test 12 field trial, preemergence; assay type: in vivo, Sida rhombifolia; set-up: scale not given here; details: Cpd 2 or Cpd 1 62 g a.i./ha, Diuron 2000 g a.i./ha
Text: In early-mid spring season, corn seeds (hybrid ‘Pioneer 3041’) were planted 5 cm deep and sugarcane nodes (variety RB-72.454) were planted 10 cm deep in separate plots in a clay soil having 2.6% organic matter and a pH of 5.6. Plots were 24 m long by 1.5 m wide with rows spaced 80 cm (corn) or 140 cm (sugarcane) apart. Corn seeds were spaced 15 cm apart and sugarcane nodes were spaced 10 cm apart within the rows. At the same time, weed seeds were broadcast over the surface of separate plots without a crop, one weed species per plot. The weed plots were rotary tilled to incorporate the weed seeds to a variety of depths. The field was managed using conventional tillage practices.

[9] = test system: yellow nutsedge (CYPES); experiment: Test 2 field trial, preemergence; assay type: in vivo, Cyperus esculentus; set-up: scale not given here
Text: Corn seeds (hybrid ‘Pioneer 31G96’) were planted in mid spring season, 3.8 cm deep in a clay loam soil having 2% organic matter and a pH of 6.6. Plots were 6.1 m long by 3.0 m wide with rows spaced 76 cm apart. Seeds were spaced 15 cm apart within the rows. The field was managed using conventional tillage practices. […] A few of the weed species could not be evaluated at every timing. […] Results are the means of the three replicates.

[10] = 2,4-D or MCPA alone 250 g a.i./ha
[11] = 18 DAA, g a.i./ha: Cpd 2 25, Atrazine 250
[12] = 18 DAA, g a.i./ha: Cpd 2 50, Atrazine 500
[13] = 18 DAA, g a.i./ha: Cpd 2 75, Atrazine 750
[14] = 18 DAA, g a.i./ha: Cpd 2 100, Atrazine 1000
[15] = 18 DAA, g a.i./ha: Cpd 2 150, Atrazine 1500
[16] = 28 DAA, g a.i./ha: Cpd 2 25, Atrazine 250
[17] = 28 DAA, g a.i./ha: Cpd 2 50, Atrazine 500
[18] = 28 DAA, g a.i./ha: Cpd 2 75, Atrazine 750
[19] = 28 DAA, g a.i./ha: Cpd 2 100, Atrazine 1000
[20] = 28 DAA, g a.i./ha: Cpd 2 150, Atrazine 1500
[21] = 55 DAA, g a.i./ha: Cpd 2 25, Atrazine 250
[22] = 55 DAA, g a.i./ha: Cpd 2 50, Atrazine 500
[23] = 55 DAA, g a.i./ha: Cpd 2 75, Atrazine 750
[24] = 55 DAA, g a.i./ha: Cpd 2 100, Atrazine 1000
[25] = 55 DAA, g a.i./ha: Cpd 2 150, Atrazine 1500

| Compound | SIDRH Obs ([8]; 15 DAA) | SIDRH Obs ([8]; 29 DAA) | SIDRH Obs ([8]; 48 DAA) | SIDRH Obs ([8]; 61 DAA) | CYPES Obs [9, 11] | CYPES Obs [9, 12] | CYPES Obs [9, 13] | CYPES Obs [9, 14] | CYPES Obs [9, 15] | CYPES Obs [9, 16] | CYPES Obs [9, 17] | CYPES Obs [9, 18] | CYPES Obs [9, 19] | CYPES Obs [9, 20] | CYPES Obs [9, 21] | CYPES Obs [9, 22] | CYPES Obs [9, 23] | CYPES Obs [9, 24] | CYPES Obs [9, 25] | further results |
| --- | --- | --- | --- | --- | --- | --- | --- | --- | --- | --- | --- | --- | --- | --- | --- | --- | --- | --- | --- | --- |
| O=C(O)COc1ccc(Cl)cc1Cl [2,4-D, (2,4-dichlorophenoxy)acetic acid] | – | – | – | – | – | – | – | – | – | – | – | – | – | – | – | – | – | – | – | Postemergence TRZAW Obs [1, 10]: 20; Postemergence MATCH Obs ([2]; 2,4-D alone 125 g a.i./ha): 40; Postemergence MATCH Obs ([2]; 2,4-D alone 250 g a.i./ha): 45; Postemergence GALAP Obs ([3]; 2,4-D alone 125 g a.i./ha): 30; Postemergence GALAP Obs ([3]; 2,4-D alone 250 g a.i./ha): 35; Postemergence HORVW Obs [4, 10]: 26; Postemergence STEME Obs ([5]; 2,4-D alone 125 g a.i./ha): 50; Postemergence STEME Obs ([5]; 2,4-D alone 250 g a.i./ha): 50 |
| CCc1cccc(C)c1N(C(=O)CCl)[C@@H](C)COC [S-Metolachlor, S-metolachlor, reference compound] | – | – | – | – | – | – | – | – | – | – | – | – | – | – | – | – | – | – | – | RAPRA Obs ([6]; 14 DAA, 1000 g a.i./ha): 40%; RAPRA Obs ([6]; 28 DAA, 1000 g a.i./ha): 15%; Obs growth % of control ([7]; 1870 g a.i./ha): 0% |
| Nc1nc(C2CC2)nc(C(=O)O)c1Cl [Compound 1, 6-amino-5-chloro-2-cyclopropyl-4-pyrimidinecarboxylic acid] | 60 | 95 | 100 | 95 | – | – | – | – | – | – | – | – | – | – | – | – | – | – | – | – |
| CCNc1nc(Cl)nc(NC(C)C)n1 [Atrazine, atrazine, reference compound] | – | – | – | – | 13 | 18 | 40 | 28 | 27 | 0 | 5 | 0 | 2 | 0 | 10 | 13 | 0 | 62 | 60 | – |
| COC(=O)c1nc(C2CC2)nc(N)c1Cl [Compound 2, methyl 6-amino-5-chloro-2-cyclopropyl-4-pyrimidinecarboxylate] | 40 | 90 | 70 | 60 | 12 | 18 | 22 | 25 | 30 | 0 | 0 | 0 | 0 | 0 | 0 | 0 | 0 | 0 | 10 | Postemergence TRZAW Obs ([1]; Cpd 2 alone 4 g a.i./ha): 30; Postemergence TRZAW Obs ([1]; Cpd 2 alone 8 g a.i./ha): 35; Postemergence TRZAW Obs ([1]; Cpd 2 alone 16 g a.i./ha): 40; Postemergence MATCH Obs ([2]; Cpd 2 alone 16 g a.i./ha): 60; Postemergence GALAP Obs ([3]; Cpd 2 alone 16 g a.i./ha): 90; RAPRA Obs ([6]; 14 DAA, 125 g a.i./ha): 35%; RAPRA Obs ([6]; 14 DAA, 250 g a.i./ha): 53%; RAPRA Obs ([6]; 14 DAA, 500 g a.i./ha): 73%; RAPRA Obs ([6]; 28 DAA, 250 g a.i./ha): 38%; RAPRA Obs ([6]; 28 DAA, 500 g a.i./ha): 58%; Obs growth % of control ([7]; 75 g a.i./ha): 0%; Obs growth % of control ([7]; 100 g a.i./ha): 0%; Postemergence HORVW Obs ([4]; Cpd 2 alone 4 g a.i./ha): 26; Postemergence HORVW Obs ([4]; Cpd 2 alone 8 g a.i./ha): 33; Postemergence HORVW Obs ([4]; Cpd 2 alone 16 g a.i./ha): 44; Postemergence STEME Obs ([5]; Cpd 2 alone 16 g a.i./ha): 65 |
